Reference: BindingDB's records for patent US9446044 (DIAXONHIT, 2016)

Target: Dual specificity tyrosine-phosphorylation-regulated kinase 1A (Homo sapiens, UniProt Q13627)
Assay: HotSpot Technology Assay
Conditions: pH 7.5; 25 °C

Row | SMILES | IC50
1 | COc1ccc(Nc2ncnc3ccc4nc(C(=N)N(C)C)sc4c23)cc1 [US9446044, 28] | 500 nM
2 | NC(=O)c1nc2ccc3ncnc(Nc4ccc5c(c4)OCO5)c3c2s1 [US9446044, 39] | 500 nM
3 | COC(=O)c1nc2ccc3ncnc(Nc4ccc5c(c4)OCO5)c3c2s1 [US9446044, 84] | 500 nM
